The source of these data is patent US20230024108A1, “ADENOSINE A2A RECEPTOR ANTAGONISTS” (Teon Therapeutics, Inc., priority 2019, published 2023).

The EC50 is the concentration at which the effect is half-maximal. Lower therefore signals greater potency. One may read the IC50 as the concentration at which inhibition is half-maximal.

One experiment addresses T1, A1AdoR (Homo sapiens, UniProt P30542).
T1 construct: purchased PerkinElmer ES-010-M400UA
T1 sequence (P30542 1-326): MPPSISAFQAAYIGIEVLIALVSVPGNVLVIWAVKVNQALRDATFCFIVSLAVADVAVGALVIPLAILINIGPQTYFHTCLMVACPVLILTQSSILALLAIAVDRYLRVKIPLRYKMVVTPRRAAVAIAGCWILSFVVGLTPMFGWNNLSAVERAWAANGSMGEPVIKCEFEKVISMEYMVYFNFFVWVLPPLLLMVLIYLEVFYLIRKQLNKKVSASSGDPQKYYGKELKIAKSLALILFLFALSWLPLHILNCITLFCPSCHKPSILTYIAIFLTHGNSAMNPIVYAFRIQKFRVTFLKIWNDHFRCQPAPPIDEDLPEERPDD
Put plainly: Adenosine receptor binding assay, A1 ([3H]-DPCPX). The following applies: ratio A1 vs A2A binding. A digest of the protocol:
(§1)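 Filtration binding on membranes: A2A in HEK-293 with 6 nM [3H]-CGS-21680, Tris pH 7.4, 2 h; A2B in HEK-293 with 8 nM [3H]-DPCPX, HEPES pH 7.0, 1 h; A1 in CHO-K1 with 1 nM [3H]-DPCPX, HEPES pH 7.4, 1 h; room temperature. 8-point dilutions; IC50 converted to Ki (Cheng–Prusoff).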

The test system of another experiment is phospho-CREB (pCREB). Put plainly: Human whole blood phospho-CREB (pCREB) assay / modulation of pCREB in human immune cells. It counts as cell-based. The following applies: agonist (NECA or CGS-21680)-stimulated human blood cells. As to the method: Fresh human blood samples are derived from healthy volunteers and processed in heparin tubes. 67.5 ul of whole blood is aliquoted to each well in a 96-well plate and incubated at 37° C. for 30 min. Testing compounds are diluted with DMSO to make 8-point 3-fold serial dilution and 3.5 ul (20×) is added to each well. Cells are incubated with the compounds at 37° C. for 30 min. NECA (5 uM) is then added to each well and cells are incubated for 30 min at 37° C. Following the stimulation, cells are transferred to a 96-well deep well plates and fixed with 1 ml/well of lyse/fix buffer (1×) (BD Biosciences #558049) with vigorous shake at 37° C. for 10 min. Cells are centrifuged at 600 g for 6 min and washed twice with PBS, followed by addition of 800 ul/well Perm buffer III (BD Biosciences #558050). Cells are then pelleted at 600 g for 6 min, washed with FACS buffer (PBS+0.2% BSA+1 mM EDTA) and stained for 40 min at room temperature in the dark with an antibody cocktail containing PE mouse anti-human CD3 (BD Biosciences #555333, 1 ul/well), FITC mouse anti-human CD4 (BD Biosciences #5555346, 1 ul/well), PerCP-Cy™5.5 mouse anti-human CD8 (BD Biosciences #565310, 1 ul/well) and phospho-CREB (Ser133) (87G3) Rabbit mAb (Alexa Fluor® 647 Conjugate, CST #14001, 0.5 ul/well). Cells are then washed twice with FACS buffer and acquired on a flow cytometer (Sony Cell Sorter SH800). Data were analyzed using FlowJo version 9. The level of CREB phosphorylation from unstimulated cells (Low control: LC) and NECA-stimulated cells (High control: HC) are determined as mean fluorescent intensity (MFI) in stimulated condition/mean fluorescent intensity in unstimulated condition. % Inhibition is calculated as (MFI of HC-MFI of assay well)/(MFI of HC-MFI of LC)×100%. Data are analyzed and IC50s calculated using GraphPad Prism 5 and the model “log(inhibitor) vs. response—Variable slope”.
The A2A receptor is known to mediate CREB phosphorylation.
Venous blood from healthy volunteers, all of whom signed an informed consent approved by the Ethics Committee (FOR—UIC-BV-050-01-01 ICF HBS HD Version 5.0), was obtained via ImmuneHealth (Centre Hospitalier Universitaire Tivoli, La Louviere,
15 Belgium). Peripheral blood cells were treated with A2AR agonists CGS-21680 or NECA (Sigma-Aldrich, Diegem, Belgium), and a serial dilution of compounds disclosed herein (all used stock solutions at 10 mM in DMSO). All dilutions were prepared in RPMI1640 medium (with UltraGlutamine; Lonza, Venders, Belgium), and cells were incubated with compounds in a 37° C. humidified tissue culture incubator with 5% CO2.
After stimulation, cells were fixed and permeabilized, followed by intracellular staining using mouse anti-human pCREB antibodies (Clone J151-21; BD Biosciences) at room temperature. Data were acquired using an LSRFortessa flow cytometer (BD Biosciences) and analyzed using FlowJo software (FlowJo, LLC, Ashland, Oregon).

The next experiment deals with T2, human A2A AdoR (Homo sapiens, UniProt P29274).
T2 construct: purchased PerkinElmer RBHA2AM400UA
In words: Adenosine receptor binding assay, A2A ([3H]-CGS-21680). The following applies: membranes of HEK-293 cells expressing human A2A AdoR; read-out: hA2A IC50. Summed up:
as §1

The next experiment has as its target T3, human A2B AdoR (Homo sapiens, UniProt P29275).
T3 construct: purchased PerkinElmer ES-013-M400UA
T3 sequence (P29275 1-332): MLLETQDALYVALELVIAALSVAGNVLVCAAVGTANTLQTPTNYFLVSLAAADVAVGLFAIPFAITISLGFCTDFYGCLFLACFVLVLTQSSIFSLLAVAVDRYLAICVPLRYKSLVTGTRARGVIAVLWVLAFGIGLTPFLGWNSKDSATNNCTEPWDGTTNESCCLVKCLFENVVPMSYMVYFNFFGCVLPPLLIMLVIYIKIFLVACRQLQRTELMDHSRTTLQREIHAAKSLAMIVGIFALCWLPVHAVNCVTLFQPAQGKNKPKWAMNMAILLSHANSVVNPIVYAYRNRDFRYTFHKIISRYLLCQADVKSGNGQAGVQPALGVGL
Put plainly: Adenosine receptor binding assay, A2B ([3H]-DPCPX). The following applies: ratio A2B vs A2A binding. As to the method: Membranes prepared from CHO-K1 cells stably expressing Human AiAdoR (ES-010-M400UA), HEK-293 cells stably expressing human A2A AdoR (RBHA2AM400UA), HEK-293 cells stably expressing human A2B AdoR (ES-013-M400UA) and CHO-K1 cells stably expressing Human A3 AdoR (ES-012-M400UA) were purchased from PerkinElmer (Waltham, Mass., USA) and stored at −80° C. until use. Binding assays are performed using the radioligands. The final concentrations are as follows: [3H]-DPCPX (PerkinElmer, NET974001MC) at 1 nM for A1AdoR; [^3H]-CGS-21680 (PerkinElmer, NET1021250UC) at 6 nM for A2AAdoR, [3H]-DPCPX (PerkinElmer, NET974001MC) at 8 nM for A2BAdoR; [^3H]-HEMADO (ARC, Cat: ART1456) at 1 nM for A3AdoR. Testing compounds are diluted with DMSO to make 8-point 4-fold serial dilution. Nonspecific binding (Low control: LC) and total binding (High control: HC) are determined in the presence or absence of saturated cold ligand. Specific binding is calculated by subtracting nonspecific binding from total binding. All assays are performed in a final volume of 200 μl containing 1 μl of the test compound in DMSO, 100 μl of membrane preparation, and 99 μl of the radioligand in assay buffer (A1AdoR: 25 mM HEPES pH 7.4, 5 mM MgCl2, 1 mM CaCl2), 100 mM NaCl; A2AAdoR: 50 mM Tris HCl pH 7.4, 10 mM MgCl2, 1 mM EDTA; A2BAdoR: 50 mM HEPES pH 7.0, 5 mM MgCl2, 1 mM EDTA; A3AdoR: 25 HEPES pH 7.4, 10 mM MgCl2, 1 mM CaCl2), 0.5% BSA). The incubation is performed at room temperature with shaking at 300 rpm for 1 hour for A1AdoR, A2BAdoR and A3AdoR and 2 hours for A2AAdoR. After the incubation, the assay mixture is filtered through 96 GF/C filter plates (Perkin Elmer #6005174) using Perkin Elmer Filtermate Harvester, and then washed four times with ice-cold washing buffer (A1AdoR: 25 mM HEPES pH 7.4, 5 mM MgCl2, 1 mM CaCl2), 100 mM NaCl; A2AAdoR: 50 mM Tris HCl pH 7.4, 154 mM NaCl; A2BAdoR: 50 mM HEPES pH 6.5, 5 mM MgCl2, 1 mM EDTA, 0.2% BSA; A3AdoR: 50 mM Tris HCl pH 7.4). The filters are dried for 1 hour at 50° C. and [^3H] trapped on filter counted for radioactivity in Perkin Elmer Microscint 20 cocktail (#6013329) using Perkin Elmer MicroBeta2 Reader. The results are expressed as a percent inhibition of the control radioligand specific binding calculated using the following equation: % Inhibition=(1−(Assay well-Average_LC)/(Average_HC−Average_LC))×100%. Data are analyzed and IC50 is calculated using GraphPad Prism 5 and the model “log(inhibitor) vs. response—Variable slope”. The binding affinity of the compounds is determined by using the Cheng and Prusoff equation Ki=IC50/(1+[radioligand]/Kd).

T2 sequence (P29274 whole entry): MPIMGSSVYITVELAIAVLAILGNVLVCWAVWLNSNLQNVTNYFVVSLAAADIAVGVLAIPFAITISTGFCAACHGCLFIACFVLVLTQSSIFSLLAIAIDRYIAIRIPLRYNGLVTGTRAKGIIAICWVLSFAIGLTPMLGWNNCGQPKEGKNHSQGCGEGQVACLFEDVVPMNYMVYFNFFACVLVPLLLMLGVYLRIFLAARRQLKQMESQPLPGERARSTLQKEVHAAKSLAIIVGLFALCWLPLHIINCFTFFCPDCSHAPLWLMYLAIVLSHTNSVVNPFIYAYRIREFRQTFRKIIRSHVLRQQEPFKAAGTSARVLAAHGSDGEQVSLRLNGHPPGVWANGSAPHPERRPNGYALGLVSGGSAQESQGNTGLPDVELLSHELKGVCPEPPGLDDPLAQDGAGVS

As to `CS(=O)(=O)NC(=O)COc1ccc(N2CCN(CCn3c(C#N)c(Cl)c4c3nc(N)n3nc(-c5ccccn5)nc43)CC2)cc1`, the “A1/A2A Selectivity” value at A1AdoR is “b (greater than 100 but less than or equal to 1000)”. Besides, the EC50 in the experiment on phospho-CREB (pCREB) was 20 to 100 nM. Also, the IC50 at human A2A AdoR was at most 20 nM.
In the same order, the values of `CC#Cc1nc2c3ncn(CCN4CCN(c5cc(-c6ncco6)ccc5F)CC4)c3nc(N)n2n1` are “a (greater than 1000)”, 20 to 100 nM and at most 20 nM.
In the same order, the values of `Cc1c(C(N)=O)n(CCN2CCN(c3cc(-c4ncco4)ccc3F)CC2)c2nc(N)n3nc(-c4ccccn4)nc3c12` are “a (greater than 1000)”, at most 20 nM and at most 20 nM.
Turning to `N#Cc1cc2c(nc(N)n3nc(-c4ccccn4)nc23)n1CCN1CCN(c2cc(-c3ncco3)ccc2F)CC1`, on human A2B AdoR, the “A2B/A2A Selectivity” value is on record as “a (greater than 1000)”. The “A1/A2A Selectivity” value on A1AdoR is “a (greater than 1000)”. This compound came in with a concentration for a half-maximal effect (EC50) with phospho-CREB (pCREB) of over 100 nM. On human A2A AdoR, the IC50 is at most 20 nM.
Regarding `CNC(=O)c1c(C)c2c(nc(N)n3nc(-c4ccccn4)nc23)n1CCN1CCN(c2cc(-c3ncco3)ccc2F)CC1`, the “A1/A2A Selectivity” value at A1AdoR was “a (greater than 1000)”. Besides, in the experiment on phospho-CREB (pCREB), the EC50 is at most 20 nM. Besides, the IC50 at human A2A AdoR is at most 20 nM.
Consider `Cc1c(C(=O)N2CCC2)n(CCN2CCN(c3cc(-c4ncco4)ccc3F)CC2)c2nc(N)n3nc(-c4ccccn4)nc3c12`, for which the “A1/A2A Selectivity” value at A1AdoR is on record as “b (greater than 100 but less than or equal to 1000)”. Further, in the experiment with phospho-CREB (pCREB), the half-maximal effective concentration (EC50) fell in the range of 20 to 100 nM. On human A2A AdoR, the IC50 is at most 20 nM.
For the compound `Cc1noc2cc(F)c(N3CCN(CCn4c(C#N)cc5c4nc(N)n4nc(-c6ccccn6)nc54)CC3)cc12`, on human A2B AdoR, the “A2B/A2A Selectivity” value is reported as “a (greater than 1000)”. For the same compound, the “A1/A2A Selectivity” value at A1AdoR was “c (greater than 0 but less than or equal to 100)”. Further, the EC50 with phospho-CREB (pCREB) is over 100 nM. Further, the IC50 on human A2A AdoR was at most 20 nM.
As to `N#Cc1c(Cl)c2c(nc(N)n3nc(-c4ccccn4)nc23)n1CCN1CCN(c2cc(-c3ncco3)ccc2F)CC1`, in the experiment on phospho-CREB (pCREB), the EC50 is 20 to 100 nM. In addition, the half-inhibitory concentration (IC50) on human A2A AdoR is at most 20 nM.
On to `Cc1cn(CCN2CCN(c3cc(-c4ncco4)ccc3F)CC2)c2nc(N)n3nc(-c4ccccn4)nc3c12`, for which the “A1/A2A Selectivity” value on A1AdoR was “c (greater than 0 but less than or equal to 100)”. This compound also showed a half-maximal effective concentration (EC50) in the experiment on phospho-CREB (pCREB) of 20 to 100 nM. Besides, the IC50 at human A2A AdoR was at most 20 nM.
In the same order, the values of `COC(=O)c1c(C)c2c(nc(N)n3nc(-c4ccccn4)nc23)n1CCN1CCN(c2cc(-c3ncco3)ccc2F)CC1` are “a (greater than 1000)”, over 100 nM and at most 20 nM.
For `CS(=O)(=O)NC(=O)COc1ccc(N2CCN(CCn3c(C#N)cc4c3nc(N)n3nc(-c5ccccn5)nc43)CC2)cc1` [2-(4-(4-(2-(5-amino-8-cyano-2-(pyridin-2-yl)-7H-pyrrolo[3,2-e][1,2,4]triazolo[1,5-c]pyrimidin-7-yl)ethyl)piperazin-1-yl)phenoxy)-N-(methylsulfonyl)acetamide], the “A1/A2A Selectivity” value on A1AdoR was “b (greater than 100 but less than or equal to 1000)”. Also, in the experiment on phospho-CREB (pCREB), the EC50 is over 100 nM. In addition, the IC50 on human A2A AdoR was at most 20 nM.
The matching figures for `Cc1noc2cc(F)c(N3CCN(CCn4cnc5c4nc(N)n4nc(-c6ccccn6)nc54)CC3)cc12` [3-(2-(4-(6-fluoro-3-methylbenzo[d]isoxazol-5-yl)piperazin-1-yl)ethyl)-8-(pyridin-2-yl)-3H-[1,2,4]triazolo[5,1-i]purin-5-amine]: “b (greater than 100 but less than or equal to 1000)”, over 100 nM and at most 20 nM.
In the same order, the values of `CNC(=O)c1cc2c(nc(N)n3nc(-c4ccccn4)nc23)n1CCN1CCN(c2cc(-c3ncco3)ccc2F)CC1` [5-amino-7-(2-(4-(2-fluoro-5-(oxazol-2-yl)phenyl)piperazin-1-yl)ethyl)-N-methyl-2-(pyridin-2-yl)-7H-pyrrolo[3,2-e][1,2,4]triazolo[1,5-c]pyrimidine-8-carboxamide] are “c (greater than 0 but less than or equal to 100)”, over 100 nM and at most 20 nM.
